Consider 40 compounds from ChEMBL document CHEMBL4406906, “Discovery of potent and selective butyrylcholinesterase inhibitors through the use of pharmacophore-based screening” (Bioorg Med Chem Lett, 2019).

Usually inhibition stands for the change of the read-out against control, counted positive when it falls. By IC50 is commonly meant the concentration that gives 50% inhibition.

Each structure is given as a SMILES string. Active and inactive are the calls of the source. The rule behind the calls is not given here. Where a SMILES comes first, the peptide text is derived from it. The star is where a group is joined. Boc = CC(C)(C)OC(=O)*

T1 sequence (P06276 whole entry): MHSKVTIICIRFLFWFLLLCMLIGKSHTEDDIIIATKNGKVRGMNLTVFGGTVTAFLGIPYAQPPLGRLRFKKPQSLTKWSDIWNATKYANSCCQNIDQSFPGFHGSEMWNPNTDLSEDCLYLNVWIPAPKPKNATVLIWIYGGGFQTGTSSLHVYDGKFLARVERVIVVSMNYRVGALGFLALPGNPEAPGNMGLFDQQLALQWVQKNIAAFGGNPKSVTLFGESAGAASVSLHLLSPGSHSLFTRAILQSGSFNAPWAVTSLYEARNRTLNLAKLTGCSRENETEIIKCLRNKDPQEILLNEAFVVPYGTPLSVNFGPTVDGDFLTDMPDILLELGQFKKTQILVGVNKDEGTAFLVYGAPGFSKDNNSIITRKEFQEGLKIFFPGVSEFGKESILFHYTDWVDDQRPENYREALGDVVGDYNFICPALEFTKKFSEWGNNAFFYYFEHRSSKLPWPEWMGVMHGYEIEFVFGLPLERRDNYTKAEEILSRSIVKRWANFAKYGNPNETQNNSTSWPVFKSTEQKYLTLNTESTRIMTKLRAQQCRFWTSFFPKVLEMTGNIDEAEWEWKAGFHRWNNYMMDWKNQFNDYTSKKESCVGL

The target of one assay is Acetylcholinesterase (Homo sapiens) (UniProt P22303). Nature of the assay: Inhibition of AChE (unknown origin) at 5000 nM by Ellman's method.
Acetylcholinesterase (Homo sapiens), sequence (P22303 whole entry): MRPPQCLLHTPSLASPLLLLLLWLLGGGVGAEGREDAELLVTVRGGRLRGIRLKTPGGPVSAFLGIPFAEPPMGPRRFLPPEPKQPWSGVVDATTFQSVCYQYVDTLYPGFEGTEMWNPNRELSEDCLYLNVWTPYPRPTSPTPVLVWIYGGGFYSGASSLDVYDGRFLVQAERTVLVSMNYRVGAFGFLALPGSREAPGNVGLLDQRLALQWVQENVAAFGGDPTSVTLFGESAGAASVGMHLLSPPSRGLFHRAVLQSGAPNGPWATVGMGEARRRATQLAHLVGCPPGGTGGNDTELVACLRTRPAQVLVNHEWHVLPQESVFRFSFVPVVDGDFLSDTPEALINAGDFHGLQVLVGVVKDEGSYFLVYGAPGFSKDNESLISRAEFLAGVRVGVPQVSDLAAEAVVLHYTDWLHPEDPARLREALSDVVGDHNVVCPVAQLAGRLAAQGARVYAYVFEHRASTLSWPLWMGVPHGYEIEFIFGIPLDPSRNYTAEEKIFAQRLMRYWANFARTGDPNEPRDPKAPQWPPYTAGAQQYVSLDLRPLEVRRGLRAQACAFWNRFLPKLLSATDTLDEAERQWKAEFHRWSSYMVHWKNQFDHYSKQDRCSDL
Turning to `c1ccc2[nH]c(CN(CCN(Cc3nc4ccccc4[nH]3)Cc3nc4ccccc4[nH]3)Cc3nc4ccccc4[nH]3)nc2c1`, the inhibition result was “inactive”.

Consider `c1ccc2c(CN3CCN(Cc4c[nH]c5ccccc45)CC3)c[nH]c2c1`, for which the inhibition entry was “inactive”.

As for `c1ccc2[nH]c(SCCSc3nc4ccccc4[nH]3)nc2c1`, the inhibition entry was “inactive”.

With `Cc1cc(CSCCc2nc3ccccc3[nH]2)c(O)c(CSCCc2nc3ccccc3[nH]2)c1`, the inhibition result was “inactive”.

A further assay has as its target T1, Cholinesterase (Homo sapiens, UniProt P06276).
Description: Inhibition of BChE (unknown origin) incubated for 10 mins by Ellman's method
Compound `c1ccc2[nH]c(CN(CCN(Cc3nc4ccccc4[nH]3)Cc3nc4ccccc4[nH]3)Cc3nc4ccccc4[nH]3)nc2c1` returned a concentration for half-maximal inhibition (IC50) of 1360 nM. That is a single-digit micromolar value.

`c1ccc2c(CN3CCN(Cc4c[nH]c5ccccc45)CC3)c[nH]c2c1` gave an IC50 of 987 nM. This IC50 and that of the compound before are within 1.5-fold of each other.

Turning to `c1ccc2[nH]c(SCCSc3nc4ccccc4[nH]3)nc2c1`, 3030 nM corresponded to half-maximal inhibition (IC50).

Take `CCN(CC)C(C)CN1c2ccccc2Sc2ccccc21` (stereo not drawn) [ETHOPROPAZINE]: the concentration for half-maximal inhibition (IC50) amounted to 210 nM.

The compound `Cc1cc(CSCCc2nc3ccccc3[nH]2)c(O)c(CSCCc2nc3ccccc3[nH]2)c1` gave a half-inhibitory concentration (IC50) of 32 nM. Against the preceding compound, the IC50 is about 6.6-fold lower.

The target of another assay is T1, Cholinesterase. Nature of the assay: Inhibition of BChE (unknown origin) at 5 uM incubated for 10 mins by Ellman's method relative to control. On the technique in general: DTNB colorimetry detects thiols as they appear.
Regarding `Cc1cc(S(=O)(=O)Nc2nc3ccccc3[nH]2)c(S)cc1Cl`, the inhibition came out at 48.5%.

`Cn1c(=O)c2nc(CS(=O)(=O)Cc3nc4c(=O)n(C)c(=O)n(C)c4[nH]3)[nH]c2n(C)c1=O`: the inhibition amounted to 8%.

For the compound `Cc1[nH]c2ccccc2c1C(=O)CC1(O)C(=O)Nc2c(Cl)cc(Cl)cc21` (stereo not drawn), the inhibition is 47.5%.

Consider `Cc1[nH]c2ccccc2c1C1=CC(c2c(C)[nH]c3ccccc23)CCC1` (stereo not drawn), for which the inhibition was 75%.

As to `COC(=O)C(Cc1c[nH]c2ccccc12)NC(=O)C(Cc1c[nH]c2ccccc12)NC(=O)C(Cc1c[nH]c2ccccc12)NC(=O)C(Cc1c[nH]c2ccccc12)NC(=O)OC(C)(C)C` (stereo not drawn) (Boc-WWWW-OMe; configuration not given here), the inhibition turned out to be 51.2%.

For `O=c1[nH]c2cc(Cl)ccc2n1C1CCN(CCCC(c2ccc(F)cc2)c2ccc(F)cc2)CC1`, the inhibition stood at 43.2%.

In the case of `Cn1c(=O)c2[nH]c(CCCc3nc4c([nH]3)c(=O)n(C)c(=O)n4C)nc2n(C)c1=O`, the inhibition turned out to be 19.1%.

In the case of `Fc1ccc2[nH]c3c(c2c1)C[PH](Cc1cccc2ccccc12)(c1ccccc1)CC3`, the inhibition was determined as 97.5%.

Consider `N#CC(C(=O)CCc1nc2ccccc2[nH]1)c1c(Cl)cccc1Cl` (stereo not drawn), for which the inhibition stood at 32.7%.

With `COc1ccc(OC)c2[nH]c(CCc3nc4c(OC)ccc(OC)c4[nH]3)nc12`, the inhibition turned out to be 16.7%.

As for `Cn1c(=O)c2nc(COCc3nc4c(=O)n(C)c(=O)n(C)c4[nH]3)[nH]c2n(C)c1=O`, the inhibition came to 26.5%.

Regarding `Oc1ccc2[nH]c3c(c2c1)C[PH](Cc1cccc2ccccc12)(c1ccccc1)CC3`, the inhibition was 99.7%.

On to `CCn1c(CCCc2nc3c(=O)n(C)c(=O)n(C)c3[nH]2)nc2c1c(=O)n(C)c(=O)n2C`, for which the inhibition came to 15.4%.

For the compound `c1ccc2[nH]c(CN(CCN(Cc3nc4ccccc4[nH]3)Cc3nc4ccccc4[nH]3)Cc3nc4ccccc4[nH]3)nc2c1`, the inhibition was found to be 92%.

Turning to `Cn1c(=O)c2[nH]c(CCc3nc4c([nH]3)c(=O)n(C)c(=O)n4C)nc2n(C)c1=O`, the inhibition was 17.9%.

On to `Cc1ccc2[nH]/c(=N/S(=O)(=O)c3cc(C)c(Cl)cc3S)[nH]c2c1`, for which the inhibition worked out at 50.9%.

`Cc1cc(S(=O)(=O)N=c2[nH]c3ccccc3[nH]2)c(SCc2ccccc2)cc1Cl`: the inhibition amounted to 65.7%.

On to `Cc1ccc(S(=O)(=O)OCC2CCc3[nH]c4ccccc4c3C2)cc1` (stereo not drawn), for which the inhibition is 73.1%.

`Cn1c(=O)c2[nH]c(C(O)C(O)c3nc4c([nH]3)c(=O)n(C)c(=O)n4C)nc2n(C)c1=O` (stereo not drawn): the inhibition was found to be 25%.

With `O=C(Nc1ccccc1)c1cc(S(=O)(=O)Nc2nc3cccnc3[nH]2)c(SSc2cc(Cl)c(C(=O)Nc3ccccc3)cc2S(=O)(=O)Nc2nc3cccnc3[nH]2)cc1Cl`, the inhibition is 9.9%.

Consider `CN(C)c1ccc(C=CC(=O)c2nc3ccccc3[nH]2)cc1`, for which the inhibition is 43.2%.

For the compound `Cn1c(=O)c2nc(CCCCc3nc4ccccc4[nH]3)[nH]c2n(C)c1=O`, the inhibition came to 25.6%.

As to `Cc1cc(S(=O)(=O)NC2=Nc3cccc4cccc(c34)N2)c(S)cc1Cl`, the inhibition was 50.3%.

Regarding `Cc1c(C(=O)CSc2nc3ccccc3[nH]2)c(=O)n(-c2ccccc2)n1C`, the inhibition is 62.7%.

`Cc1ccc2nc(CN(CCN(Cc3nc4ccc(C)cc4[nH]3)Cc3nc4ccc(C)cc4[nH]3)Cc3nc4ccc(C)cc4[nH]3)[nH]c2c1`: the inhibition is 41.7%.

Take `Cc1cc(S(=O)(=O)N=c2[nH]c3cccc(C)c3[nH]2)c(SCc2ccccc2)cc1Cl`: the inhibition stood at 55.6%.

As for `c1ccc2c(CN3CCN(Cc4c[nH]c5ccccc45)CC3)c[nH]c2c1`, the inhibition was determined as 76.5%.

For the compound `COC(=O)C(Cc1c[nH]c2ccccc12)NC(=O)C(Cc1c[nH]c2ccccc12)NC(=O)OCc1ccccc1` (stereo not drawn), the inhibition was 92.9%.

For `Cc1cc2nc(C(O)C(O)C(O)C(O)c3nc4cc(C)c(C)cc4[nH]3)[nH]c2cc1C` (stereo not drawn), the inhibition turned out to be 4%.

Turning to `COC(=O)C(Cc1c[nH]c2ccccc12)NC(=O)C(Cc1c[nH]c2ccccc12)NC(=O)C(Cc1c[nH]c2ccccc12)NC(=O)C(Cc1c[nH]c2ccccc12)NC(=O)C(Cc1c[nH]c2ccccc12)NC(=O)C(Cc1c[nH]c2ccccc12)NC(=O)OC(C)(C)C` (stereo not drawn) (Boc-WWWWWW-OMe; configuration not given here), the inhibition was found to be 46%.

Consider `CCC(C)C(NC(=O)C(CC(C)C)NC(=O)C(N)Cc1c[nH]c2ccccc12)C(=O)NC(Cc1c[nH]c2ccccc12)C(=O)O` (stereo not drawn) (H-WLIW-OH; configuration not given here), for which the inhibition turned out to be 38.9%.

In the case of `Cc1ccc(S(=O)(=O)C(C#N)(Cc2c[nH]c3ccccc23)Cc2c[nH]c3ccccc23)cc1`, the inhibition came to 48.5%.

With `c1ccc2[nH]c(SCCSc3nc4ccccc4[nH]3)nc2c1`, the inhibition was found to be 81.2%.

Take `Cc1nc(C(N)=S)sc1C(=O)CC(=O)C(=O)Nc1nc2ccccc2[nH]1`: the inhibition stood at 43.5%.

Take `Cc1cc(CSCCc2nc3ccccc3[nH]2)c(O)c(CSCCc2nc3ccccc3[nH]2)c1`: the inhibition was 101%.

In the case of `O=c1[nH]nc(Cc2ccc(Cl)cc2)n1N=Cc1c[nH]c2ccccc12`, the inhibition came to 20.7%.

On to `O=S(=O)(Cc1nc2ccccc2[nH]1)Cc1nc2ccccc2[nH]1`, for which the inhibition is 62%.

`COC(=O)[C@H](Cc1c[nH]c2ccccc12)NC(=O)[C@H](Cc1c[nH]c2ccccc12)NC(=O)[C@H](Cc1c[nH]c2ccccc12)NC(=O)OC(C)(C)C` (Boc-Trp-Trp-Trp-OMe): the inhibition came to 79.9%.

As for `Cn1c(=O)c2[nH]c(CCCc3nc4c(c(=O)n(C)c(=O)n4C)n3C)nc2n(C)c1=O`, the inhibition was determined as 25.3%.
